From patent publication US11779014B2, “Adjuvants” (SYNGENTA PARTICIPATIONS AG, priority 2017, dated 2023)

What was measured:
[1] = system: Digitaria sanguinalis (DIGSA); assay: Glasshouse adjuvancy test for nicosulfuron on DIGSA; assay type: in vivo
Experimental: (§1) The biological efficacies of blends of an oleyl 20 ethoxylate uncapped surfactant with an oleyl 20 ethoxylate surfactant with an n-hexyl ether cap as adjuvants for the herbicide nicosulfuron were tested in a glasshouse against three weed species sown into standard soil in pots and cultivated under controlled conditions in a glasshouse (24/18° C. day/night; 16 hours light; 65% humidity). Nicosulfuron was added to the spray tank as a standard WG (water dispersible granule) formulation. The plants were sprayed with nicosulfuron at rates of 15 or 60 grams of pesticide per hectare using a laboratory track sprayer which delivered the aqueous spray composition at a rate of 200 litres per hectare, using a flat fan nozzle (Teejet 11002VS) at 2 bar. The adjuvants were added to the spray solution at a total rate of 0.1 or 0.2% w/v in all cases and at extra lower rates for the oleyl 20EO alone and its 1:1 blend with the oleyl 20EO n-hexyl ether to show the dose response to these adjuvants. All spray solutions also contained 10% w/w of iso-propanol. The weed species and their BBCH growth stage at spraying were Chenopodium album (CHEAL; growth stage 15), Digitaria sanguinalis (DIGSA; growth stage 14), and Commelina benghalensis (COMBE; growth stage 14). Each spray test was replicated three times. The test plants were then grown in a glasshouse under controlled conditions (24/18° C. day/night; 16 hours light; 65% humidity) and watered twice a day. The efficacy of the herbicide was assessed visually and expressed as a percentage of the leaf area killed. Samples were assessed at a time period of 21 days following application. The following tables (3-8) show the effect of blends of the two surfactants at a total concentration of 0.2 and 0.1%. In each case the blends were 1:0, 3:1, 1:1, 1:3 and 0:1 w/w of oleyl 20EO:oleyl 20 EO n-hexyl ether. The biological efficacies of blends of oleyl 20 ethoxylate and oleyl 20EO ethoxylate with a benzoate cap as adjuvants for the herbicide nicosulfuron were tested in a glasshouse using the same method as for ‘Example 1’ but against just two weed species and with just 0.2% w/v total adjuvant concentration. The weed species and their BBCH growth stage at spraying HI were Chenopodium album (CHEAL; growth stage 13-15) and Digitaria sanguinalis (DIGSA; growth stage 14-22).

[2] = system: Chenopodium album (CHEAL); assay: Glasshouse adjuvancy test for nicosulfuron on CHEAL; assay type: in vivo
Experimental: as §1, with “ether.” for “ether. The biological efficacies of blends of oleyl 20 ethoxylate and oleyl 20EO ethoxylate with a benzoate cap as adjuvants for the herbicide nicosulfuron were tested in a glasshouse using the same method as for ‘Example 1’ but against just two weed species and with just 0.2% w/v total adjuvant concentration. The weed species and their BBCH growth stage at spraying HI were Chenopodium album (CHEAL; growth stage 13-15) and Digitaria sanguinalis (DIGSA; growth stage 14-22).”
The biological efficacies of blends of oleyl 20 ethoxylate and oleyl 20EO ethoxylate with a benzoate cap as adjuvants for the herbicide nicosulfuron were tested in a glasshouse using the same method as for ‘Example 1’ but against just two weed species and with just 0.2% w/v total adjuvant concentration. The weed species and their BBCH growth stage at spraying HI were Chenopodium album (CHEAL; growth stage 13-15) and Digitaria sanguinalis (DIGSA; growth stage 14-22).
The biological efficacies of 1:1 blends of an oleyl 20 ethoxylate uncapped surfactant with oleyl 20E ethoxylate surfactants with hexanoyl, n-octanoyl or 2-ethyl hexanoyl ester caps as adjuvants for the herbicide nicosulfuron were tested in a glasshouse using the same method as for ‘Example 1’ but against just one weed species and at 0.2% w/v tital adjuvant concentration. The weed species and its BBCH growth stage at spraying was Chenopodium album (CHEAL; growth stage 15).

[3] = Cloud point measurement (absorbance at 500 nm as a function of temperature); assay type: physicochemical
Experimental: Consistent with the standard method for measuring the cloud point of surfactants, the cloud point of each of the above blends was measured at a total concentration of 1% w/w in water using a Perkin Elmer spectrophotometer fitted with a PTP6 temperature controller. The absorbance of the solution at 500 nm wavelength was determined as a function of temperature. The cloud point was recorded as the onset of a rapid increase in absorbance as the solution began to cloud.
Cloud point—the measurements relied on the same method as for ‘Example 1’
Cloud points—were measured using the same method as in Example 1.
This example provides de-gelling, cloud point and adjuvancy data for dodecyl 23 ethoxylate with n-hexyl cap and hexadecyl 20 ethoxylate with n-hexyl cap Cloud points were measured as described in example 1 for 1% aqueous solutions of the capped and uncapped surfactants both individually and as blends (see Table 30). Degelling temperatures were also measured as outlined in example 1 for 25, 30, 35 and 40% aqueous solutions of the capped and uncapped surfactants both individually and as blends (see Table 31).
This example provides de-gelling, cloud point and adjuvancy data for oleyl 20 ethoxylate with n-butyl, n-pentyl or benzyl ether caps end capped oleyl 20 ethoxylate. Cloud points were measured as described in example 1 for 1% aqueous solutions of the capped and uncapped surfactants both individually and as blends. Degelling temperatures were also measured as outlined in example 1 for 25, 30, 35 and 40% aqueous solutions o of the capped and uncapped surfactants both individually and as blends.

[4] = nicosulfuron 15 g ai/ha, 0.1% total surfactant concentration, 21 days, Table 8
[5] = nicosulfuron 15 g ai/ha, 0.2% total surfactant concentration, 21 days, Table 7
[6] = nicosulfuron 60 g ai/ha, 0.1% total surfactant concentration, 21 days, Table 8
[7] = nicosulfuron 60 g ai/ha, 0.2% total surfactant concentration, 21 days, Table 7
[8] = nicosulfuron 15 g ai/ha, 0.1% total surfactant concentration, 21 days, Table 6
[9] = nicosulfuron 15 g ai/ha, 0.2% total surfactant concentration, 21 days, Table 5
[10] = nicosulfuron 60 g ai/ha, 0.1% total surfactant concentration, 21 days, Table 6
[11] = nicosulfuron 60 g ai/ha, 0.2% total surfactant concentration, 21 days, Table 5
[12] = total concentration 1% w/w in water, Table 2
[13] = dose response, nicosulfuron 15 g ai/ha, adjuvant 0.05%
[14] = dose response, nicosulfuron 15 g ai/ha, adjuvant 0.1%
[15] = dose response, nicosulfuron 15 g ai/ha, adjuvant 0.2%
[16] = dose response, nicosulfuron 60 g ai/ha, adjuvant 0.05%
[17] = dose response, nicosulfuron 60 g ai/ha, adjuvant 0.1%
[18] = dose response, nicosulfuron 60 g ai/ha, adjuvant 0.2%

With Oleyl 20EO n-hexyl ether the Mean control [1, 4] was 81.7%, the Mean control [1, 5] was 73.3% and the Mean control [1, 6] was 75%. For the same compound, the Mean control [1, 7] was 81.7%, the Mean control [2, 8] was 85% and the Mean control [2, 9] was 81.7%. The Mean control [2, 10] was 85%, the Mean control [2, 11] was 88.3% and the Cloud point [3, 12] was 52.0 °C.
Work on `CCCCCCCC/C=C\CCCCCCCCOCCOCCOCCOCCOCCOCCOCCOCCOCCOCCOCCOCCOCCOCCOCCOCCOCCOCCOCCOCCO` [Oleyl 20EO, oleyl 20 ethoxylate] yielded a Mean control [1, 13] of 60.0%, a Mean control [1, 14] of 76.7% and a Mean control [1, 15] of 83.3%. For the same compound, the Mean control [1, 16] was 53.3%, the Mean control [1, 17] was 60.0% and the Mean control [1, 18] was 80.0%. The Mean control [1, 4] was 76.7%, the Mean control [1, 5] was 83.3% and the Mean control ([1]; nicosulfuron 15 g ai/ha, 0.2% w/v total adjuvant, Example 3, growth stage 14-22) was 91.3%. For the same compound, the Mean control [1, 6] was 60%, the Mean control [1, 7] was 80% and the Mean control ([1]; nicosulfuron 60 g ai/ha, 0.2% w/v total adjuvant, Example 3, growth stage 14-22) was 85.0%. The Mean control [2, 13] was 81.7%, the Mean control [2, 14] was 86.7% and the Mean control [2, 15] was 83.3%. The Mean control [2, 16] was 83.3%, the Mean control [2, 17] was 80.0% and the Mean control [2, 18] was 80.0%. It also gave a Mean control [2, 8] of 86.7%, a Mean control [2, 9] of 83.3% and a Mean control ([2]; nicosulfuron 15 g ai/ha, 0.2% w/v total adjuvant, Example 3, growth stage 13-15) of 66.7%. For the same compound, the Mean control ([2]; nicosulfuron 15 g ai/ha, 0.2% w/v total adjuvant, Example 4, growth stage 15) was 76.8%, the Mean control [2, 10] was 80% and the Mean control [2, 11] was 80%. The Mean control ([2]; nicosulfuron 60 g ai/ha, 0.2% w/v total adjuvant, Example 3, growth stage 13-15) was 68.3%, the Mean control ([2]; nicosulfuron 60 g ai/ha, 0.2% w/v total adjuvant, Example 4, growth stage 15) was 71.7% and the Cloud point ([3]; 1% aqueous solutions, Table 34) was greater than 90.0 °C. The Cloud point ([3]; 1%, Table 15) was greater than 95.0 °C, the Cloud point ([3]; 1%, Table 20) was greater than 95.0 °C and the Cloud point [3, 12] was greater than 90 °C.
